Values quoted from earlier work in patent US4477441A, “Renin inhibitors containing a C-terminal disulfide cycle” (Merck & Co., Inc., priority 1983, dated 1984).

Tested on: hog renin
Conditions: nephrectomized rats after injection of hog renin; Gross et al. 1971

Substance: Pepstatin
- blood pressure in vivo: reduce blood pressure in vivo
